Test results from patent US10435435B2, “Quinstatin compounds” (THE ARIZONA BOARD OF REGENTS ON BEHALF OF ARIZONA STATE …, priority 2015, dated 2019).
Like-named read-outs stand apart in the source and are kept apart here. Square brackets hold non-standard residues; d marks the D form. Peptide text beside a SMILES is read from it. * marks the point of attachment. Dolaproine = CO[C@@H]([C@@H]1CCCN1)[C@@H](C)C(=O)O; Dil = CC[C@H](C)[C@H](NC)[C@@H](CC(=O)O)OC; X1 = C[C@@H](N*)[C@@H](O)c1ccccc1; NMeV = CN[C@H](C(=O)O)C(C)C

Columns and labels:
[1] = test system: DU-145 (prostate) cancer cell line; assay: NCI sulforhodamine B growth inhibition, DU-145; type: cell-based, human; conditions: DU-145, 48 h
Protocol: (§1) Next, serial dilutions of the compounds were added.

[2] = test system: SF-268 (CNS) cancer cell line; assay: NCI sulforhodamine B growth inhibition, SF-268; type: cell-based, human; conditions: SF-268, 48 h
Protocol: as §1

[3] = test system: BXPC-3 (pancreas) cancer cell line; assay: NCI sulforhodamine B growth inhibition, BXPC-3; type: cell-based, human; conditions: BXPC-3, 48 h
Protocol: as §1

[4] = test system: NCI-H460 (lung) cancer cell line; assay: NCI sulforhodamine B growth inhibition, NCI-H460; type: cell-based, human; conditions: NCI-H460, 48 h
Protocol: as §1

[5] = test system: KM20L2 (colon) cancer cell line; assay: NCI sulforhodamine B growth inhibition, KM20L2; type: cell-based, human; conditions: KM20L2, 48 h
Protocol: as §1

[6] = test system: MCF-7 (breast) cancer cell line; assay: NCI sulforhodamine B growth inhibition, MCF-7; type: cell-based, human; conditions: MCF-7, 48 h
Protocol: as §1

Human Cancer Cell Lines = test system: Human Cancer Cell Lines
Protocol: Inhibition of human cancer cell growth was assessed using the National Cancer Institute's standard sulforhodamine B assay as previously described.^10 In summary, cells in a 5% fetal bovine serum/RPMI1640 medium were inoculated in 96-well plates and incubated for 24 hrs. Next, serial dilutions of the compounds were added. After 48 h, the plates were fixed with trichloroacetic acid, stained with sulforhodamine B, and read with an automated microplate reader.

[7] = bracketed value, read-out: GI50

Structure (SMILES) | GI50 [1] [ng/mL] | GI50 [1, 7] [nM] | GI50 [2] [ng/mL] | GI50 [2, 7] [nM] | GI50 [3] [ng/mL] | GI50 [3, 7] [nM] | GI50 [4] [ng/mL] | GI50 [4, 7] [nM] | GI50 [5] [ng/mL] | GI50 [5, 7] [nM] | GI50 [6] [ng/mL] | GI50 [6, 7] [nM] | increase in cancer cell growth inhibition as compared to auristatin AQ (Human Cancer Cell Lines; comparison with auristatin AQ) | inhibition level compared with dolastatin 10 (Human Cancer Cell Lines; in one of the experiments)
CC[C@H](C)[C@@H]([C@@H](CC(=O)N1CCC[C@H]1[C@H](OC)[C@@H](C)C(=O)N[C@H](C)[C@@H](O)c1ccccc1)OC)N(C)C(=O)[C@@H](NC(=O)[C@H](C(C)C)N(C)C)C(C)C [Auristatin E, auristatin E, reference compound] | 0.31 | 0.424 | 0.36 | 0.492 | >1 | > 1.37 | 0.39 | 0.533 | 0.36 | 0.492 | 0.17 | 0.232 | – | –
CC[C@H](C)[C@@H]([C@@H](CC(=O)N1CCC[C@H]1[C@H](OC)[C@@H](C)C(=O)N[C@H](C)[C@@H](O)c1ccccc1)OC)N(C)C(=O)[C@@H](NC(=O)[C@@H](NC)C(C)C)C(C)C [Desmethylauristatin E, desmethyl auristatin E, reference compound] (H-[NMeV]V[Dil][Dolaproine]-X1) | 0.3 | 0.418 | 0.31 | 0.432 | >1 | > 1.39 | 0.49 | 0.683 | 0.43 | 0.599 | 0.29 | 0.404 | – | –
CC[C@H](C)[C@@H]([C@@H](CC(=O)N1CCC[C@H]1[C@H](OC)[C@@H](C)C(=O)N[C@@H](Cc1ccccc1)c1nccs1)OC)N(C)C(=O)[C@@H](NC(=O)[C@H](C(C)C)N(C)C)C(C)C [Dolastatin 10, dolastatin 10, reference compound] | 0.0052 | 0.007 | 0.0043 | 0.006 | 0.04 | 0.051 | 0.18 | 0.229 | 0.008 | 0.01 | 0.0042 | 0.005 | – | –
CC[C@H](C)[C@@H]([C@@H](CC(=O)N1CCC[C@H]1[C@H](OC)[C@@H](C)C(=O)NCCc1ccc2ccccc2n1)OC)N(C)C(=O)[C@@H](NC(=O)[C@H](C(C)C)N(C)C)C(C)C [Quinstatin 2, 2-(1′-Dov-Val-Dil-Dap-2′-ethyl)-quinoline] | 0.31 | 0.412 | 0.23 | 0.306 | 9.3 | 12.3 | 5.1 | 6.78 | 0.33 | 0.438 | 0.31 | 0.412 | ten to one hundred times | –
CC[C@H](C)[C@@H]([C@@H](CC(=O)N1CCC[C@H]1[C@H](OC)[C@@H](C)C(=O)NCCc1cnc2ccccc2c1)OC)N(C)C(=O)[C@@H](NC(=O)[C@H](C(C)C)N(C)C)C(C)C [Quinstatin 3, 3-(1′-Dov-Val-Dil-Dap-2′-ethyl)-quinoline] | 0.2 | 0.26 | 0.29 | 0.38 | 21 | 27.9 | 31 | 41.2 | 0.4 | 0.53 | 0.23 | 0.31 | – | –
CC[C@H](C)[C@@H]([C@@H](CC(=O)N1CCC[C@H]1[C@H](OC)[C@@H](C)C(=O)NCCc1ccc2ncccc2c1)OC)N(C)C(=O)[C@@H](NC(=O)[C@H](C(C)C)N(C)C)C(C)C [Quinstatin 6, Dov-Val-Dil-Dap-2-(quinolin-6-yl)ethylamine] | 0.3 | 0.399 | 0.3 | 0.399 | 2 | 2.66 | 4.3 | 5.71 | 0.39 | 0.518 | 0.4 | 0.532 | – | –
CC[C@H](C)[C@@H]([C@@H](CC(=O)N1CCC[C@H]1[C@H](OC)[C@@H](C)C(=O)NCCc1ccc2cccnc2c1)OC)N(C)C(=O)[C@@H](NC(=O)[C@H](C(C)C)N(C)C)C(C)C [Quinstatin 7, 7-(1′-Dov-Val-Dil-Dap-2′-ethyl)-quinoline] | 0.03 | 0.04 | 0.024 | 0.032 | 3.1 | 4.12 | 11 | 14.6 | 0.041 | 0.054 | 0.03 | 0.039 | – | –
CC[C@H](C)[C@@H]([C@@H](CC(=O)N1CCC[C@H]1[C@H](OC)[C@@H](C)C(=O)NCCc1cccc2cccnc12)OC)N(C)C(=O)[C@@H](NC(=O)[C@H](C(C)C)N(C)C)C(C)C [Quinstatin 8, 8-(1′-Dov-Val-Dil-Dap-2′-ethyl)-quinoline] | 0.04 | 0.053 | 0.023 | 0.03 | 0.5 | 0.425 | 0.9 | 1.19 | 0.04 | 0.053 | 0.04 | 0.053 | – | at the dolastatin 10 level, but not consistently
